These results are taken from US20260152501A1, “CYCLIN MODULATOR” (EUBULUS BIOTHERAPEUTICS (HONG KONG) LIMITED, priority 2022, published 2026).

Common to all, as to assay type: cell-based
In assay [1] the test system is HT-29 cells. Nature of the assay: Cell proliferation experiment, HT-29 cells. As to conditions: Cell Titer-Glo, read-out: Cell antiproliferation data HT-29. On the procedure: (§1) Reagents: RPMI-1640 medium, McCoy's 5A medium, IMDM medium, MEM medium, L-15 medium, fetal bovine serum, Penicillin-Streptomycin double antibody, trypsin, etc., 2-mercaptoethanol, NEAA, pyruvate, etc.
(§2) The test cells were cultured in conventional ways, and the cells should be passed for at least 2 generations before plating.
(§3) 25 μL of 1000 HT-29, N87, SKOV3, Colo-205 and MDA-MB-231 cells were inoculated in a 384-well plate with black wall and transparent bottom, 25 μL of different concentrations of compounds were added, and the cells were cultured overnight under condition of 37° C. and 5% CO2.
(§4) 25 μL of 1500 H82 and H69 cells were inoculated in a 384-well plate with black wall and transparent bottom, 25 μL of different concentrations of compounds were added, and the cells were cultured for 72 hours under condition of 37° C. and 5% CO2. The 384-well plate was equilibrated at room temperature, 25 μL of Cell Titer-Glo® reagent was added to each well, and the cells were lysed by shaking on a horizontal shaking shaker for 2 minutes, incubated at room temperature for 10 minutes to stabilize the luminescent signal, and then the chemiluminescent signal was detected using Envision.
(§5) All cells were subjected to IC50 test for corresponding samples.
(§6) The fluorescence intensity of each well was detected using the Alarm blue method, and EC50 was calculated.
(§7) IC50 was calculated according to the following formula:
(§8) [formula] • wherein, Min, Max and Slope represent the minimum, maximum and slope respectively.

Assay [2] has as its system MDA-MB-231 cells. Nature of the assay: Cell proliferation experiment, MDA-MB-231 cells. As to conditions: Cell Titer-Glo, read-out: Cell antiproliferation data MDA-MB-231. On the procedure: as §1, §2, §3, §4, §5, §6, §7, §8
The subject of assay [3] is H82 cells. Nature of the assay: Cell proliferation experiment, H82 cells. Particulars: Homo sapiens, NCI-H82, cultured for 72 hours, Cell Titer-Glo, read-out: Cell antiproliferation data H82. Here is the method: as §1, §2, §4
(§9) All cells were subjected to IC50 test for corresponding samples. […]
as §7, §8

Assay [4] concerns N87 cells. The experiment in a line: Cell proliferation experiment, N87 cells. Particulars: Cell Titer-Glo, read-out: Cell antiproliferation data N87. Here is the method: as §1, §2, §3, §4, §5, §6, §7, §8
Assay [5] deals with H69 cells. Nature of the assay: Cell proliferation experiment, H69 cells. Particulars: cultured for 72 hours, Cell Titer-Glo, read-out: Cell antiproliferation data H69. Here is the method: as §1, §2, §4, §9, §7, §8
Assay [6] has as its system Colo-205 cells. The experiment in a line: Cell proliferation experiment, Colo-205 cells. As to conditions: Cell Titer-Glo, read-out: Cell antiproliferation data Colo-205. On the procedure: as §1, §2, §3, §4, §5, §6, §7, §8
In assay [7] the test system is SKOV3 cells. The experiment in a line: Cell proliferation experiment, SKOV3 cells. Particulars: Cell Titer-Glo, read-out: Cell antiproliferation data SKOV3. On the procedure: as §1, §2, §3, §4, §5, §6, §7, §8
For assay [8], the system named is Cyclin K. Nature of the assay: Immunohistochemistry (IHC) staining of Cyclin K in HepG2 cells. Particulars: incubated with compound 2 hours, CCNK antibody. Here is the method: Appropriate amount of compounds were added to the cultured cells. The cells were incubated in a tissue culture incubator at 37° C. for 2 hours.
After washing the cultured cells twice with PBS, 100 μL 10% neutral buffered formalin were added and the cells were fixed for 20 minutes.
After washing 3 times with PBS, immunohistochemical staining was performed using CCNK antibody and general two-step detection kit (mouse/rabbit enhanced polymer detection system, PV-9000, Zsbio Inc, Beijing).
Specifically, 100 μL of endogenous peroxidase blocker in the kit was added, cells were incubated at room temperature for 10 minutes; rinsed with PBS buffer for 3 minutes×3 times.
100 μL CCNK antibody 1:5000 dilution was added, and the cells were incubated at 37° C. for 60 minutes; rinsed with PBS buffer for 3 minutes×3 times.
100 μL reaction enhancer was added, and the cells were incubated at 37° C. for 20 minutes; rinsed with PBS buffer for 3 minutes×3 times.
100 μL enhanced enzyme-labeled goat anti-mouse/rabbit IgG polymer was added, and the cells were incubated at 37° C. for 20 minutes; rinsed with PBS buffer for 3 minutes×3 times.
The cells were placed in 75% ethanol, soaked for 3 minutes×2 times; placed in 95% ethanol, soaked for 3 minutes×2 times; after removing excess liquid, placed in anhydrous ethanol, soaked for 3 minutes×3 times; after removing excess liquid, air dried, observed under a microscope and taken pictures after sealing.

In assay [9] the test system is HepG2 cells. The experiment in a line: Antiproliferative effect on HepG2 cells. As to conditions: Homo sapiens. On the procedure:
as §1, §2, §5, §6, §7, §8

The mark [10] stands for this setting: Homo sapiens, COLO 205, Colo-205 cells.
Setting [11] is: Homo sapiens, SK-OV-3, SKOV3 cells.

Read-outs that look alike come from different tables or passages of the source.

`CCn1cnc2c(NCc3ccc(-c4cccc(CO)n4)cc3)nc(N3CCOCC3)nc21` [UB-001]: the IC50 in assay [1] (Homo sapiens) was ≤ 100 nM; in [2] (Homo sapiens), ≤ 100 nM; in assay [3], 100 to 300 nM; in assay [4] it was ≤ 100 nM; in assay [5] (Homo sapiens, NCI-H69, 72 h) it was ≤ 100 nM; in [6] (setting [10]) it was 100 to 300 nM.

Regarding `CCn1cnc2c(NCc3ccc(-c4cccc(CO)n4)cc3)nc(N3CCNCC3)nc21` [UB-002], the IC50 is ≤ 100 nM in [1] (Homo sapiens); ≤ 100 nM in assay [2] (Homo sapiens); 100 to 300 nM in assay [3]; ≤ 100 nM in assay [4]; ≤ 100 nM in assay [5] (Homo sapiens, NCI-H69, 72 h); ≤ 100 nM in [6] (setting [10]).

Regarding `CCn1cnc2c(NCc3ccc(-c4cccc(CO)n4)cc3)nc(N3CCN(C)CC3)nc21` [UB-003], the IC50 in [1] (Homo sapiens) is ≤ 100 nM; in assay [2] (Homo sapiens), ≤ 100 nM; in assay [5] (Homo sapiens, NCI-H69, 72 h), 100 to 300 nM; in [6] (setting [10]) it was ≤ 100 nM.

For the molecule `CCn1cnc2c(NCc3ccc(-c4cccc(CO)c4)cc3)nc(N3CCNCC3)nc21` [UB-004], the IC50 in [7] (setting [11]) was 100 to 300 nM; in assay [1] (Homo sapiens) it was ≤ 100 nM; in assay [2] (Homo sapiens) it was ≤ 100 nM; in assay [5], > 300 nM; in assay [6] (setting [10]), 100 to 300 nM.

Consider `CCn1cnc2c(NCc3ccc(-c4cccc(CO)c4)cc3)nc(N3CCNCC3)nc21` [UB-005], for which the IC50 in assay [7] (SKOV3 cells), in [1], in assay [2], in assay [3], in assay [4] and in assay [5] was ≤ 100 nM in each case. Further, the IC50 in [6] (Colo-205 cells) was ≤ 100 nM.

Take `CCn1cnc2c(NCc3ccc(-c4ccccn4)cc3)nc(N[C@H]3CC[C@H](O)CC3)nc21` [UB-006]: the IC50 in assay [7] (setting [11]) was ≤ 100 nM; in assay [1] (Homo sapiens), ≤ 100 nM; in [2] (Homo sapiens), ≤ 100 nM; in assay [5] (Homo sapiens, NCI-H69, 72 h) it was > 300 nM; in assay [6] (setting [10]) it was ≤ 100 nM.

With `CC[C@H](CO)Nc1nc(NCc2ccc(-c3ccccc3)cc2)c2ncn(C(C)C)c2n1` [UB-007, (R)-2-((6-(([1,1′-biphenyl]-4-ylmethyl)amino)-9-isopropyl-9H-purin-2-yl)amino)butan-1-ol], the IC50 is > 300 nM in [7] (setting [11]); 100 to 300 nM in assay [1] (Homo sapiens); > 300 nM in assay [2] (Homo sapiens); 100 to 300 nM in assay [3]; 100 to 300 nM in assay [4]; > 300 nM in assay [5] (Homo sapiens, NCI-H69, 72 h). Also, the IC50 in assay [6] (setting [10]) is > 300 nM.

With `CC(C)n1cnc2c(NCc3ccc(-c4ccccc4)c(OCCCCO)c3)nc(N3CCNCC3)nc21` [UB-045, 4-((4-(((9-isopropyl-2-(piperazin-1-yl)-9H-purin-6-yl)amino)methyl)-[1,1′-biphenyl]-2-yl)oxy)butan-1-ol], the “Cyclin K IHC data of HepG2 cells” value in assay [8] is listed as “D (D > 278 nM)”. For the same molecule, the IC50 in assay [9] was > 300 nM.

Take `CC(C)n1cnc2c(NCc3ccc(-c4ccccc4O)cc3)nc(N3CCNCC3)nc21` [UB-046, 4′-(((9-isopropyl-2-(piperazin-1-yl)-9H-purin-6-yl)amino)methyl)-[1,1′-biphenyl]-2-ol]: the “Cyclin K IHC data of HepG2 cells” value in assay [8] is listed as “D (D > 278 nM)”. The IC50 in [9] lay in the range of 100 to 300 nM.

With `CC(C)n1cnc2c(NCc3ccc(-c4ccccc4OCCO)cc3)nc(N3CCNCC3)nc21` [UB-047, 2-((4′-(((9-isopropyl-2-(piperazin-1-yl)-9H-purin-6-yl)amino)methyl)-[1,1′-biphenyl]-2-yl)oxy)ethan-1-ol], in assay [8], the “Cyclin K IHC data of HepG2 cells” value is listed as “D (D > 278 nM)”. The IC50 in assay [9] lay in the range of 50 to 100 nM.

Regarding `CC(C)n1cnc2c(NCc3ccc(-c4ccccc4OCCN)cc3)nc(N3CCNCC3)nc21` [UB-048, N-((2′-(2-aminoethoxy)-[1,1′-biphenyl]-4-yl)methyl)-9-isopropyl-2-(piperazin-1-yl)-9H-purin-6-amine], the “Cyclin K IHC data of HepG2 cells” value in assay [8] is “D (D > 278 nM)”. In addition, in assay [9], the IC50 was > 300 nM.

Regarding `CCCOc1ccccc1-c1ccc(CNc2nc(N3CCNCC3)nc3c2ncn3C(C)C)cc1` [UB-049, 9-isopropyl-2-(piperazin-1-yl)-N-((2′-propoxy-[1,1′-biphenyl]-4-yl)methyl)-9H-purin-6-amine], the “Cyclin K IHC data of HepG2 cells” value in [8] is recorded as “D (D > 278 nM)”. In [9], the IC50 lay within 100 to 300 nM.

As for `CC(C)n1cnc2c(NCc3ccc(-c4ccccc4OCCCCO)cc3)nc(N3CCNCC3)nc21` [UB-050, 4-((4′-(((9-isopropyl-2-(piperazin-1-yl)-9H-purin-6-yl)amino)methyl)-[1,1′-biphenyl]-2-yl)oxy)butan-1-ol], in [8], the “Cyclin K IHC data of HepG2 cells” value is “D (D > 278 nM)”. In [9], this molecule gave an IC50 of 100 to 300 nM.

As to `CC(C)n1cnc2c(NCc3ccc(-c4ccccc4OCCCC#N)cc3)nc(N3CCNCC3)nc21` [UB-051, 4-((4′-(((9-isopropyl-2-(piperazin-1-yl)-9H-purin-6-yl)amino)methyl)-[1,1′-biphenyl]-2-yl)oxy)butyronitrile], in assay [8], the “Cyclin K IHC data of HepG2 cells” value is “D (D > 278 nM)”. This molecule gave an IC50 in assay [9] of 100 to 300 nM.

`c1ccc(-c2ccc(CNc3nc(N4CCNCC4)nc4c3ncn4C3CCC3)cc2)cc1` [UB-052, N-([1,l′-biphenyl]-4-ylmethyl)-9-cyclobutyl-2-(piperazin-1-yl)-9H-purin-6-amine]: the “Cyclin K IHC data of HepG2 cells” value in [8] is listed as “C (93 nM < C <= 278 nM)”. Moreover, the IC50 in assay [9] was < 50 nM.

In the case of `c1ccc(-c2ccc(CNc3nc(N4CCNCC4)nc4c3ncn4-c3ccccc3)cc2)cc1` [UB-053, N-([1,1′-biphenyl]-4-ylmethyl)-9-phenyl-2-(piperazin-1-yl)-9H-purin-6-amine], the “Cyclin K IHC data of HepG2 cells” value in [8] was “D (D > 278 nM)”. For the same molecule, the IC50 in assay [9] is > 300 nM.

For the molecule `Cn1cc(-n2cnc3c(NCc4ccc(-c5ccccc5)cc4)nc(N4CCNCC4)nc32)cn1` [UB-055, N-([1,1′-biphenyl]-4-ylmethyl)-9-(1-methyl-1H-pyrazol-4-yl)-2-(piperazin-1-yl)-9H-purin-6-amine], the “Cyclin K IHC data of HepG2 cells” value in [8] is “D (D > 278 nM)”. Moreover, in assay [9], the IC50 was > 300 nM.

Turning to `CC(C)n1cnc2c(NCc3ccc(-c4ccccc4)cc3)nc(N[C@H]3C[C@H](N)C3)nc21` [UB-061, N6-([1,1′-biphenyl]-4-yl-methyl)-N2-((1r,3r)-3-aminocyclobutyl)-9-isopropyl-9H-purin-2,6-diamine], the “Cyclin K IHC data of HepG2 cells” value in assay [8] is “B (31 nM < B <= 93 nM)”. For the same molecule, the IC50 in assay [9] is < 50 nM.

For the molecule `CC(C)n1cnc2c(NCc3ccc(-c4ccccc4)c(OCCN)c3)nc(N3CCNCC3)nc21` [UB-062, N-((2-(2-aminoethoxy)-[1,l′-biphenyl]-4-yl)methyl)-9-isopropyl-2-(piperazin-1-yl)-9H-purin-6-amine], the “Cyclin K IHC data of HepG2 cells” value in [8] is given as “D (D > 278 nM)”. For the same molecule, the IC50 in assay [9] is > 300 nM.

For `CC(C)n1cnc2c(NCc3ccc(-c4ccccc4)c(OCCCC#N)c3)nc(N3CCNCC3)nc21` [UB-063, 4-((4-(((9-isopropyl-2-(piperazin-1-yl)-9H-purin-6-yl)amino)methyl)-[1,1′-biphenyl]-2-yl)oxy)butyronitrile], the “Cyclin K IHC data of HepG2 cells” value in assay [8] is “D (D > 278 nM)”. For the same molecule, in assay [9], the IC50 lay within 100 to 300 nM.
